Measured values reported in PubChem BioAssay AID1918993 (Molecular Pharmacology Branch, DTP, NCI, 2023).

Tested on: 233499-124-R-J3-PDC complex spheroid growth
Assay: Anticancer human tumor 233499-124-R-J3-PDC patient-derived colon adenocarcinoma cell line growth inhibition [AhR]
Conditions: for IC50: curve of first compound; for viability, T/C: stronger effect = lower value
Outline: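 Spheroids combined tumor cells with HUVEC endothelial cells and human MSCs as stroma. AhR antagonists were paired with standard or investigational drugs, each dosed in half-log steps down from near clinical Cmax, or from 10 microM where Cmax was unknown.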
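Also: spheroids exposed to agents for seven days before reading.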

`CC1(C)CCC(CN2CCN(c3ccc(C(=O)NS(=O)(=O)c4ccc(NCC5CCOCC5)c([N+](=O)[O-])c4)c(Oc4cnc5[nH]ccc5c4)c3)CC2)=C(c2ccc(Cl)cc2)C1` + Cc1cncc(-c2nc(NCCc3c[nH]c4ccccc34)c3ncn(C(C)C)c3n2)c1 gave an IC50 (second compound 0.1 µM) greater than 10 µM, an IC50 (second compound 0.316 µM) greater than 10 µM and an IC50 (second compound 1 µM) greater than 10 µM. The IC50 (second compound 3.16 µM) was greater than 10 µM, the IC50 (second compound 10 µM) was less than 0.0316 µM and the viability, T/C (second compound 0.1 µM, first compound 0.0316 µM) was 103%. For the same compound, the viability, T/C (second compound 0.1 µM, first compound 0.1 µM) was 97.9%, the viability, T/C (second compound 0.1 µM, first compound 0.316 µM) was 92.6% and the viability, T/C (second compound 0.1 µM, first compound 1 µM) was 104%. For the same compound, the viability, T/C (second compound 0.1 µM, first compound 3.16 µM) was 100%, the viability, T/C (second compound 0.1 µM, first compound 10 µM) was 109% and the viability, T/C (second compound 0.316 µM, first compound 0.0316 µM) was 82%. For the same compound, the viability, T/C (second compound 0.316 µM, first compound 0.1 µM) was 95%, the viability, T/C (second compound 0.316 µM, first compound 0.316 µM) was 88.2% and the viability, T/C (second compound 0.316 µM, first compound 1 µM) was 95.7%. The viability, T/C (second compound 0.316 µM, first compound 3.16 µM) was 96.8%, the viability, T/C (second compound 0.316 µM, first compound 10 µM) was 96.3% and the viability, T/C (second compound 1 µM, first compound 0.0316 µM) was 94.6%. It also gave a viability, T/C (second compound 1 µM, first compound 0.1 µM) of 84.2%, a viability, T/C (second compound 1 µM, first compound 0.316 µM) of 85.8% and a viability, T/C (second compound 1 µM, first compound 1 µM) of 82%. The viability, T/C (second compound 1 µM, first compound 3.16 µM) was 85.2%, the viability, T/C (second compound 1 µM, first compound 10 µM) was 89.3% and the viability, T/C (second compound 3.16 µM, first compound 0.0316 µM) was 71.6%. It also gave a viability, T/C (second compound 3.16 µM, first compound 0.1 µM) of 68.5%, a viability, T/C (second compound 3.16 µM, first compound 0.316 µM) of 76.5% and a viability, T/C (second compound 3.16 µM, first compound 1 µM) of 63.5%. It also gave a viability, T/C (second compound 3.16 µM, first compound 3.16 µM) of 70.3%, a viability, T/C (second compound 3.16 µM, first compound 10 µM) of 81.7% and a viability, T/C (second compound 10 µM, first compound 0.0316 µM) of 12%. It also gave a viability, T/C (second compound 10 µM, first compound 0.1 µM) of 9.79%, a viability, T/C (second compound 10 µM, first compound 0.316 µM) of 7.48% and a viability, T/C (second compound 10 µM, first compound 1 µM) of 23.7%. The viability, T/C (second compound 10 µM, first compound 3.16 µM) was 8.38% and the viability, T/C (second compound 10 µM, first compound 10 µM) was 15.6%.
